From PubChem BioAssay (NCI)
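Five concentrations, 48 hours, 96-well plates. GI50 marks 50% less growth. Definition used: TGI = concentration required for complete inhibition of growth.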

Experiments:
Experiment in all cases: NCI-60 cell line screen, 48 h
BT-549 breast = system: BT-549 breast
CAKI-1 renal = system: CAKI-1 renal
HT29 colon = system: HT29 colon
NCI-H23 lung = system: NCI-H23 lung
SR leukemia = system: SR leukemia
TK-10 renal = system: TK-10 renal
UACC-257 melanoma = system: UACC-257 melanoma
RPMI-8226 leukemia = system: RPMI-8226 leukemia

Compound | TGI (BT-549 breast) [µM] | TGI (CAKI-1 renal) [µM] | TGI (HT29 colon) [µM] | TGI (NCI-H23 lung) [µM] | TGI (SR leukemia) [µM] | TGI (TK-10 renal) [µM] | TGI (UACC-257 melanoma) [µM] | TGI (RPMI-8226 leukemia) [µM] | GI50 (BT-549 breast) [µM] | GI50 (CAKI-1 renal) [µM] | GI50 (HT29 colon) [µM] | GI50 (NCI-H23 lung) [µM] | GI50 (RPMI-8226 leukemia) [µM] | GI50 (SR leukemia) [µM] | GI50 (TK-10 renal) [µM] | GI50 (UACC-257 melanoma) [µM]
C[C@]12CC[C@H]3[C@@H](CC[C@]4(O)C[C@@H](O)CC[C@]34C=O)[C@@]1(O)CC[C@@H]2C1=CC(=O)OC1 | 1.08 | 0.61 | 2.03 | 1.12 | > 100 | 1.63 | 2.5 |  |  |  |  |  |  |  |  | 
COC(=O)C1=C(C)NC(C)=C(C(=O)OC)C1c1cccc(/[N+]([O-])=C/c2ccccc2)c1 | 30.3 | 32.3 | 87.4 | > 100 | 62 | > 100 | 40.5 | > 100 |  |  |  |  |  |  |  | 
CC(=O)OC1CC2(C)C(=CC1C1SCCS1)CCC1C2CCC2(C)C(OC(C)=O)CCC12 (configuration not stated) | > 100 | > 100 | > 100 | > 100 | > 100 | > 100 | > 100 | > 100 |  |  |  |  |  |  |  | 
CCC[CH2][Sn]1([CH2]CCC)[O]C(=O)c2cccc([N+](=O)[O-])c2C(=O)[O]1 | 2.09 | 1.39 | 2.87 | 1.19 | 1.97 | 0.805 | 1.19 | 0.596 | 0.849 | 0.332 | 1.31 | 0.301 | 0.186 | 0.28 | 0.335 | 0.292
CC(=O)C(CN1C(=O)c2ccccc2C1=O)C(C)=O | > 100 | > 100 | > 100 | > 100 |  | > 100 | > 100 |  |  |  |  |  |  |  |  | 
CCCCCCC(=O)NC1=C(N2CC2)C(=O)C(NC(=O)CCCCCC)=C(N2CC2)C1=O | > 100 | > 100 | > 100 |  | > 100 | 72.9 |  |  | 31.3 | 1.93 | 2.94 |  |  | 1.06 | 20.2 | 
COC(=O)CC[C@@H](C)[C@H]1CC[C@H]2[C@@H]3CC[C@@H]4C[C@H](O)CC[C@]4(C)[C@H]3CC[C@]12C | 33.8 | 34.1 | 31.9 | 32.9 | 52.1 | 37.4 | 29.5 | > 100 |  |  |  |  |  |  |  | 
Clc1ccc2c(NC3CCC(N4CCCCC4)CC3)ccnc2c1 (configuration not stated) | 42.8 | 50.7 | 40.7 | > 100 | 35.5 | 48.8 | 29.4 | 84 |  |  |  |  |  |  |  | 
CCN1CCN(c2ccc(NC(=O)Nc3nc4ccc(-c5ccccc5OC)cc4s3)cc2)CC1 | 3.73 |  | 2.7 | 3.65 | 4.31 | 3.6 | 3.79 | 4.6 | 1.88 |  | 1.31 | 1.67 | 2.06 | 1.65 | 2.12 | 2.11
O=C1OC(OC/C(Br)=C(\Br)COC2OC(=O)C(Cl)=C2Cl)C(Cl)=C1Cl (configuration not stated) | 6.45 | 5.54 | 9.77 | 14 | 2.16 | 15.2 | 23.9 | 3.94 |  |  |  |  |  |  |  | 
O=C(Nc1nc2c(C(F)(F)F)cccc2s1)c1cc(Cl)ccc1O | 1.79 |  | 13 | 1.44 | 3.28 | 10.7 | 0.821 | 0.52 | 0.305 |  | 0.44 | 0.296 | 0.203 | 0.353 | 0.365 | 0.273
